From patent publication US10906876B2, “Tetrahydroisoquinolines as selective NADPH oxidase 2 inhibitors” (University of Pittsburgh—Of the Commonwealth System of …, priority 2013, dated 2021)

Biological target: T1, Nox5 (Homo sapiens, UniProt Q96PH1)
T1 construct: expressed in transfected cells; host or cells: HEK-Nox5 cells (gift of D. Fulton)
T1 sequence (Q96PH1 19-737 isoform Q96PH1-3 limits assumed): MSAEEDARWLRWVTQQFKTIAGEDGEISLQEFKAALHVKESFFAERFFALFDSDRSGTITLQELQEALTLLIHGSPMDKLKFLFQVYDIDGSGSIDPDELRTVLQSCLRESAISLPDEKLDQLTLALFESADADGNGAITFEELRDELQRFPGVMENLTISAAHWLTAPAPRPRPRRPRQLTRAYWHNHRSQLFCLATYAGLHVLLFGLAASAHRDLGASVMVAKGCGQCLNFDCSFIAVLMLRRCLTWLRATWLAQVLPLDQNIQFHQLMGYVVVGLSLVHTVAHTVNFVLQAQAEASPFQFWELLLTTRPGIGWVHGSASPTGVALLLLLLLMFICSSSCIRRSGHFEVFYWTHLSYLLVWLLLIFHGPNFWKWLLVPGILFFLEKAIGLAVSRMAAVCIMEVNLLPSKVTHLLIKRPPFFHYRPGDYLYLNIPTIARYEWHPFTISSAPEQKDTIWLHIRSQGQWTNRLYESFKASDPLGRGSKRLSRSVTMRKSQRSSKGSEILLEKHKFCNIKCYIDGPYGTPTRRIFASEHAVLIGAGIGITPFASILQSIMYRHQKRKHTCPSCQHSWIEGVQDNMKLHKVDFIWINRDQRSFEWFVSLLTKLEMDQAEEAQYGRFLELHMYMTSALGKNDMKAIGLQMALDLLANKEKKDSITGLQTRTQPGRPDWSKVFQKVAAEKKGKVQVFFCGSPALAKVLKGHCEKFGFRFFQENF
Test: Nox5 activity in HEK-Nox5 cells, L-012 assay
Assay type: cell-based
Conditions: for IC50: HEK-Nox5 cells stimulated with 1 μM PMA and 0.5 ionomycin, L-012, read-out: IC50 of ROS generation, Nox5 (L-012 assay); for Nox5 inhibitory activity: Table 2
From the text: All cell culture reagents were obtained from Invitrogen, unless indicated. COS-22 (COS-7 cells stably expressing human p22^phox) and COS-Nox2 (a.k.a. COS-phox) cells (COS-7 cells stably expressing human p22^phox, Nox2, p47^phox and p67^phox) were kindly provided by Dr. Mary C. Dinauer (Indiana University, School of Medicine) (Price et al., Blood, 2002, 99:2653-2661). COS-22 cells were maintained in Dulbecco's Modified Eagle Medium (DMEM) with 4.5 g/L glucose, L-glutamine and sodium pyruvate containing 10% heat-inactivated fetal bovine serum (FBS), 100 units/ml penicillin and 100 μg/ml streptomycin (complete media) supplemented with 1.8 mg/ml G418 (Calbiochem/EMB Bioscience, Gibbstown, N.J.). COS-Nox2 cells were maintained in complete media supplemented with 1.8 mg/mL G418, 1 μg/mL puromycin (Sigma, St Louis, Mo.) and 0.2 mg/mL hygromycin B (Invitrogen, Carlsbad, Calif.). HEK-Nox5 cells were kindly provided by Dr. David Fulton (Georgia Health Sciences University) and maintained in complete media.
COS-Nox2, COS-Nox1/NOXO1/NOXA1, HEK-Nox5 and COS-22 cells were re-plated in OPTIMEM into 384-well white micro-plates (Greiner-Bio One GmbH, Germany) at a density of 2.5×10^3 cells/well for COS-Nox2 and 5×10^4 cells/well for all others. The cells were incubated at 37° C. in PBS containing 400 μm L-012 for 10 min. […] Since Nox1 was constitutively active, Nox1-derived O2^•− was assessed by comparison to non-transfected cells (Cos22). Luminescence was quantified over time using a Biotek Synergy 4 Hybrid Multi-Mode Microplate Reader. The specificity of L-012 for O2^•− was confirmed by the addition of SOD (150 U/mL).
All data are expressed as means±SEM. IC50 values were determined using the GraphPad Prism software (GraphPad Software, San Diego, Calif.) for non-linear regression three-parameters, with constrain values of 100 and 0 for top and bottom, respectively, and assumes a Hill slope of 1.

Structure (SMILES) | IC50 [µM] | Nox5 inhibitory activity
C=C(C)CC1C2c3c(Br)cccc3C(CC2(C)C)N1Cc1cccs1 (racemic) [Compound 11h, (±)-(1S,4R,9S)-5-Bromo-3,3-dimethyl-9-(2-methylallyl)-10-(thiophen-2-ylmethyl)-1,2,3,4-tetrahydro-1,4-(epiminomethano)naphthalene] | > 100 | virtually no effect
C=C(C)CC1C2c3c(Br)cccc3C(CC2(C)C)N1Cc1ccc2c(c1)OCO2 (racemic) [Compound 11d, (±)-(1S,4R,9S)-10-(Benzo[d][1,3]dioxol-5-ylmethyl)-5-bromo-3,3-dimethyl-9-(2-methylallyl)-1,2,3,4-tetrahydro-1,4-(epiminomethano)naphthalene] | > 100 | 
C=C(C)CC1C2c3c(Br)cccc3C(CC2(C)C)N1Cc1cccc(F)c1 (racemic) [Compound 11f, (±)-(1S,4R,9S)-5-Bromo-10-(3-fluorobenzyl)-3,3-dimethyl-9-(2-methylallyl)-1,2,3,4-tetrahydro-1,4-(epiminomethano)naphthalene] | 79 ± 30 | inhibited
C=C(C)CC1C2c3c(Br)cccc3C(CC2(C)C)N1Cc1ccnc2ccccc12 (racemic) [Compound 11b, (±)-(1S,4R,9S)-5-Bromo-3,3-dimethyl-9-(2-methylallyl)-10-(quinolin-4-ylmethyl)-1,2,3,4-tetra-hydro-1,4-(epiminomethano)naphthalene] | > 100 | 
CC(C)CC1NC2CC(C)(C)C1c1c(Br)cccc12 (racemic) [Compound 13] | 18 ± 1 | retained inhibitory activity
C=C(C)CC1NC2CC(C)(C)C1c1c(Br)cccc12 (racemic) [Compound 7, (±)-(1S,4R,9S)-5-Bromo-3,3-dimethyl-9-(2-methylallyl)-1,2,3,4-tetrahydro-1,4-(epimino-methano)-naphthalene] | 20 ± 3.1 | active
C=C(C)CC1C2c3c(Br)cccc3C(CC2(C)C)N1Cc1c[nH]c2ccccc12 (racemic) [Compound 11c, (±)-(1S,4R,9S)-10-((1H-Indol-3-yl)methyl)-5-bromo-3,3-dimethyl-9-(2-methylallyl)-1,2,3,4-tetrahydro-1,4-(epiminomethano)naphthalene] | > 100 | 
C=C(C)CC1C2c3ccccc3C(CC2(C)C)N1Cc1cccc(F)c1 (racemic) [Compound 11a, (±)-(1S,4R,9S)-10-(3-Fluorobenzyl)-3,3-dimethyl-9-(2-methylallyl)-1,2,3,4-tetrahydro-1,4-(epiminomethano)naphthalene] | 50 ± 9 | inhibited
C=C(C)CC1NC2CC(C)(C)C1c1ccccc12 (racemic) [Compound 8, (±)-(1S,4R,9S)-3,3-Dimethyl-9-(2-methylallyl)-1,2,3,4-tetrahydro-1,4-(epiminomethano)-naphthalene] | > 100 | inactive
C=C(C)C[C@@H]1N[C@H]2CC(C)(C)[C@@H]1c1c(Br)ccc(Br)c12 [Compound 9] | 36 | active
C=C(C)CC1C2c3c(Br)cccc3C(CC2(C)C)N1Cc1cc(C)on1 (racemic) [Compound 11e, (±)-3-(1S,4R,9S)-5-Bromo-3,3-dimethyl-9-(2-methylallyl)-1,2,3,4-tetrahydro-1,4-(epimino-methano) naphthalen-10-yl)methyl)-5-methylisoxazole] | 31 ± 11 | inhibited
C=C(C)CC1C2c3c(Br)cccc3C(CC2(C)C)N1CCCCC (racemic) [Compound 11g, (±)-(1S,4R,9S)-5-Bromo-3,3-dimethyl-9-(2-methylallyl-10-pentyl-1,2,3,4-tetrahydro-1,4-(epiminomethano)naphthalene] | > 100 | virtually no effect

Continued, values first:

IC50 [µM] | Nox5 inhibitory activity | Structure (SMILES)
14 ± 0.6 | comparable | C=C(C)CC1NC2CC(C)(C)C1c1c(-c3ccc(Cl)c(Cl)c3)cccc12 (racemic) [Compound 12a, (±)-(1S,4R,9S)-5-(3,4-Dichlorophenyl)-3,3-dimethyl-9-(2-methylallyl)-1,2,3,4-tetrahydro-1,4-(epiminomethano)naphthalene]
> 100 |  | C=C(C)CC1C2c3c(-c4ccc(Cl)c(Cl)c4)cccc3C(CC2(C)C)N1CCCCC (racemic) [Compound 12c]
> 100 |  | C=C(C)CC1C2c3c(-c4ccc(Cl)c(Cl)c4)cccc3C(CC2(C)C)N1Cc1ccc2c(c1)OCO2 (racemic) [Compound 12b, (±)-(1S,4R,9S)-10-(Benzo[d][1,3]dioxol-5-ylmethyl)-5-(3,4-dichlorophenyl)-3,3-dimethyl-9-(2-methylallyl)-1,2,3,4-tetrahydro-1,4-(epiminomethano)-naphthalene]
> 100 |  | C=C(C)CC1C2c3c(Br)cccc3C(CC2(C)C)N1S(C)(=O)=O (racemic) [Compound 14a, (±)-(1S,4R,9S)-5-Bromo-3,3-dimethyl-9-(2-methylallyl)-10-(methylsulfonyl)-1,2,3,4-tetrahydro-1,4-(epiminomethano)naphthalene]
> 100 |  | C=C(C)CC1C2c3c(Br)cccc3C(CC2(C)C)N1S(=O)(=O)c1ccc(F)cc1 (racemic) [Compound 14b, (±)-(1S,4R,9S)-5-Bromo-10-((4-fluorophenyl)sulfonyl)-3,3-dimethyl-9-(2-methylallyl)-1,2,3,4-tetrahydro-1,4-(epiminomethano)naphthalene]
